Reference: PubChem BioAssay (NCI)
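How tested: cells in 96-well plates exposed to compound for 48 hours at five concentrations. TGI: concentration producing complete growth inhibition.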

Tests used:
Experiment in all cases: NCI tumour cell line growth inhibition, 48 h
[1] = test system: 786-0 renal
[2] = test system: A498 renal
[3] = test system: A549 NSCLC
[4] = test system: ACHN renal
[5] = test system: CAKI-1 renal
[6] = test system: CCRF-CEM leukemia
[7] = test system: COLO 205 colon
[8] = test system: DLD-1 colon
[9] = test system: DMS 114 small cell lung
[10] = test system: DMS 273 small cell lung
[11] = test system: EKVX NSCLC
[12] = test system: HCC-2998 colon
[13] = test system: HCT-116 colon
[14] = test system: HCT-15 colon
[15] = test system: HL-60(TB) leukemia
[16] = test system: HOP-18 NSCLC
[17] = test system: HOP-62 NSCLC
[18] = test system: HOP-92 NSCLC
[19] = test system: HT29 colon
[20] = test system: IGROV1 ovarian
[21] = test system: K-562 leukemia
[22] = test system: KM12 colon
[23] = test system: KM20L2 colon
[24] = test system: LOX IMVI melanoma
[25] = test system: LXFL 529 NSCLC
[26] = test system: M14 melanoma
[27] = test system: M19-MEL melanoma
[28] = test system: MALME-3M melanoma
[29] = test system: MOLT-4 leukemia
[30] = test system: NCI-H226 lung
[31] = test system: NCI-H23 lung
[32] = test system: NCI-H460 lung
[33] = test system: OVCAR-3 ovarian
[34] = test system: OVCAR-4 ovarian
[35] = test system: OVCAR-5 ovarian
[36] = test system: OVCAR-8 ovarian
[37] = test system: RPMI-8226 leukemia
[38] = test system: RXF 393 renal
[39] = test system: RXF-631 renal
[40] = test system: SF-268 CNS
[41] = test system: SF-295 CNS
[42] = test system: SF-539 CNS
[43] = test system: SK-MEL-2 melanoma
[44] = test system: SK-MEL-28 melanoma
[45] = test system: SK-MEL-5 melanoma
[46] = test system: SN12C renal
[47] = test system: SNB-75 CNS
[48] = test system: SNB-78 CNS
[49] = test system: SR leukemia
[50] = test system: SW-620 colon
[51] = test system: TK-10 renal
[52] = test system: U251 CNS
[53] = test system: UACC-257 melanoma
[54] = test system: UACC-62 melanoma
[55] = test system: UO-31 renal
[56] = test system: XF 498 CNS

C/C(=N\NC(=S)Nc1ccc([N+](=O)[O-])cc1S(=O)(=O)O)c1ccccn1
TGI [1]: > 100 µM | TGI [2]: 88.8 µM | TGI [3]: > 100 µM | TGI [4]: > 100 µM | TGI [5]: > 100 µM | TGI [6]: > 100 µM | TGI [7]: > 100 µM | TGI [8]: > 100 µM | TGI [9]: > 100 µM | TGI [10]: > 100 µM | TGI [11]: > 100 µM | TGI [12]: > 100 µM | TGI [13]: > 100 µM | TGI [14]: > 100 µM | TGI [15]: 84.8 µM | TGI [16]: > 100 µM | TGI [17]: > 100 µM | TGI [18]: > 100 µM | TGI [19]: > 100 µM | TGI [20]: > 100 µM | TGI [21]: > 100 µM | TGI [22]: > 100 µM | TGI [23]: 67.2 µM | TGI [24]: > 100 µM | TGI [25]: > 100 µM | TGI [26]: > 100 µM | TGI [27]: > 100 µM | TGI [28]: > 100 µM | TGI [29]: > 100 µM | TGI [30]: > 100 µM | TGI [31]: > 100 µM | TGI [32]: 69 µM | TGI [33]: 72.7 µM | TGI [34]: 95.3 µM | TGI [35]: > 100 µM | TGI [36]: > 100 µM | TGI [37]: > 100 µM | TGI [38]: 86.1 µM | TGI [39]: > 100 µM | TGI [40]: > 100 µM | TGI [41]: > 100 µM | TGI [42]: > 100 µM | TGI [43]: 91.3 µM | TGI [44]: > 100 µM | TGI [45]: > 100 µM | TGI [46]: > 100 µM | TGI [47]: > 100 µM | TGI [48]: > 100 µM | TGI [49]: 75.6 µM | TGI [50]: 56.5 µM | TGI [51]: > 100 µM | TGI [52]: > 100 µM | TGI [53]: > 100 µM | TGI [54]: > 100 µM | TGI [55]: > 100 µM | TGI [56]: 78.7 µM
